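Grown in 96-well plates, cells were treated for 48 hours with each compound at five concentrations. Insufficient inhibition: endpoint recorded as highest concentration tested. GI50: concentration for 50% inhibition of growth. TGI: concentration producing complete growth inhibition.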 Residues, ends and D or L forms follow the SMILES beside them. *: point of attachment. Cbz = O=C(OCc1ccccc1)*

Experiment in all cases: NCI anticancer screen, dose series, 48 h
The subject of assay [1] is OVCAR-5 ovarian.
Assay [2] deals with A498 renal.
The subject of assay [3] is MOLT-4 leukemia.
Assay [4] relates to NCI-H460 lung.
The subject of assay [5] is HL-60(TB) leukemia.
The subject of assay [6] is SF-268 CNS.
Assay [7] concerns SR leukemia.
For assay [8], the system named is A549 NSCLC.
Assay [9] concerns HOP-62 NSCLC.
Assay [10] relates to PC-3 prostate.

As for `O=[N+]([O-])c1oc2ccc3ccccc3c2c1CCO`, the TGI is 34.9 µM in assay [1]; 0.72 µM in assay [2]; more than 100 µM in [3]; 0.819 µM in [4]; 13 µM in assay [5]; 40.5 µM in [6]. Besides, the TGI in [7] is 3.23 µM; in assay [8], 7.29 µM; in assay [9] it was more than 67.1 µM; in assay [10] it was 87.7 µM.
On to `O=S(=O)(NCCCNc1cc(-c2cn(-c3ccccc3)nc2-c2cccc(O)c2)ccn1)c1ccc(Br)cc1`, for which the GI50 in assay [1] was 2.12 µM; in assay [2] it was 0.386 µM; in assay [3], 1.13 µM; in assay [4] it was 1.77 µM; in assay [5], 1.79 µM; in [6] it was 1.45 µM. The GI50 in assay [7] is 1.51 µM; in [8], 2.6 µM; in [9], 1.88 µM; in [10], 2.11 µM. Moreover, the TGI in [1] turned out to be 5.55 µM; in [2], 2.89 µM; in [3] it was 3.73 µM; in [4] it was 3.72 µM; in assay [5], 4.92 µM; in assay [6] it was 4.98 µM. In addition, the TGI was found to be 5.49 µM in assay [7], 12.6 µM in assay [8], 4.59 µM in assay [9] and 7.83 µM in assay [10].
Regarding `CC1(C)CCC(C)(C)c2cc(NC(=O)c3ccc(C(=O)O)cc3)ccc21`, the TGI was more than 95.2 µM in assay [1]; 85.1 µM in [2]; more than 100 µM in [3]; more than 62.7 µM in assay [4]; more than 100 µM in assay [5]; more than 100 µM in assay [6]. Further, the TGI in assay [7] is more than 100 µM; in assay [8], more than 100 µM; in assay [9], more than 57.6 µM; in [10], more than 70.6 µM.
Consider `COC(=O)c1oc2c(C(=O)/C=C/c3ccc(OC)cc3)c(OCCN3CCOCC3)ccc2c1C`, for which the GI50 is 2.38 µM in [1]; 2.04 µM in [2]; 1.24 µM in assay [3]; 1.91 µM in assay [4]; 1.44 µM in [5]; 2.05 µM in [6]. In addition, the GI50 was 0.287 µM in [7], 2.22 µM in assay [8], 2.44 µM in assay [9] and 1.84 µM in assay [10]. Also, the TGI came to 6.68 µM in assay [1]; 4.69 µM in [2]; 3.72 µM in assay [3]; 4.75 µM in assay [4]; 4.29 µM in [5]; 5.76 µM in [6]. Moreover, the TGI in assay [7] was found to be 1.29 µM; in [8] it was 6.07 µM; in assay [9], 6.88 µM; in assay [10], 6.88 µM.
As for `CC(C)C[C@@H](C=O)NC(=O)[C@H](CC(C)C)NC(=O)[C@H](CC(C)C)NC(=O)OCc1ccccc1` (Cbz-Leu-Leu-Leu-aldehyde), the GI50 in [1] was 0.643 µM; in assay [2] it was 0.424 µM; in assay [3], 0.322 µM; in assay [4] it was 0.455 µM; in assay [5], 0.33 µM; in assay [6], 0.297 µM. Also, the GI50 in [7] is 0.366 µM; in [8], 0.578 µM; in assay [10], 0.479 µM. The TGI was determined as 4.74 µM in assay [1]; 2.22 µM in [2]; 11.9 µM in assay [3]; 2.02 µM in [4]; 1.89 µM in assay [5]; 1.45 µM in assay [6]. Moreover, the results for the TGI in assay [7], in [8] and in assay [10] were 86.6 µM, 12.8 µM and 2.91 µM, respectively.
As for `Oc1ccccc1/C=N\NC(=S)N/N=C/c1ccccc1O`, the GI50 in assay [1] is 9.38 µM; in assay [2], 3.66 µM; in assay [3] it was 1.43 µM; in assay [4] it was 0.62 µM; in assay [5] it was 2.04 µM; in [6] it was 1.08 µM. Further, the GI50 in assay [7] is 1.67 µM; in [8], 3.5 µM; in assay [9], 4.22 µM; in assay [10], 5.99 µM. The TGI was more than 100 µM in assay [1]; 21.9 µM in assay [2]; 22.4 µM in [3]; 12.1 µM in [4]; 14.6 µM in assay [5]; 44.1 µM in assay [6]. Moreover, the TGI in assay [7], in [8], in [9] and in [10] was more than 100 µM each time.
Take `NC(N)=N/N=C/c1c(-c2cccnc2)nc2sc(Cl)cn12`: the GI50 in assay [1] is 12.7 µM; in [2] it was 20.6 µM; in [3], 13.6 µM; in assay [4], 61.2 µM; in [6], 20.7 µM; in [7], 17.1 µM. The GI50 in assay [8] is 18.7 µM; in assay [9], 18 µM; in assay [10], 15.2 µM. The TGI in assay [1] was 25.3 µM; in assay [2] it was 37.6 µM; in assay [3], 31.6 µM; in assay [4], more than 100 µM; in assay [6], 52.7 µM; in assay [7] it was more than 100 µM. The TGI in assay [8] came to 40.1 µM; in [9] it was 31.9 µM; in assay [10] it was 28.5 µM.
Take `C=C1C(=O)O[C@H]2[C@H]1CC/C(CNC(=O)/C=C/c1ccccc1F)=C\CC[C@@]1(C)O[C@@H]21`: the GI50 was 1.9 µM in [1]; 2.6 µM in [2]; 1.55 µM in assay [3]; 2.36 µM in assay [4]; 2.83 µM in [6]; 0.482 µM in assay [7]. Further, the GI50 is 7 µM in assay [8], 3.89 µM in [9] and 2 µM in assay [10]. Moreover, the TGI turned out to be 5.15 µM in assay [1]; 7.49 µM in assay [2]; 4.86 µM in assay [3]; 6.19 µM in assay [4]; 9.8 µM in assay [6]; 6.88 µM in [7]. For the same compound, the figures for the TGI in assay [8], in assay [9] and in [10] were 24.5 µM, 16.6 µM and 4.29 µM, respectively.

The values above are taken from PubChem BioAssay (NCI).
